Laboratory results reported in patent publication US11548923B2, “Peptide compositions and methods of use thereof for disrupting TEAD interactions” (Fred Hutchinson Cancer Center, priority 2017, dated 2023).
Entries after “also recorded” stand apart in the source; their conditions may differ. Where a SMILES comes first, the peptide text is derived from it. Bridges are numbered along the chain shown (N, C = ends).

Columns and labels:
TEAD [1] = target: T1, TEAD (Homo sapiens, UniProt P28347); assay: Mammalian surface display (SDGF vector, HEK-293 cells) TEAD-binding flow cytometry; settings: for TEAD binding of cells displaying variant versus parent peptide: HEK-293 suspension cells transfected with SDGF constructs; for TEAD binding of HEK-293 cells expressing SDGF-peptide: stained with 200 nM AF647-Streptavidin-TEAD
T1 construct: GST; made in house; host or cells: Hi5 insect cells (baculovirus, BacMagic, pIEX-BAC3)

biotinylated TEAD = target: T2, biotinylated TEAD (Homo sapiens, UniProt P28347); assay: Surface plasmon resonance (SPR) binding of soluble peptides to captured biotinylated TEAD; settings: soluble peptides
T2 construct: GST; made in house; host or cells: Hi5 insect cells (baculovirus, BacMagic, pIEX-BAC3)

[2] = tested on: 8×GTIIC (TEAD luciferase reporter); assay: Cytosolic peptide expression with 8×GTIIC TEAD luciferase reporter; type: cell-based; settings: mCherry-T2a-peptide co-transfected with FLAG-YAP and 8×GTIIC; vs. YAP only
Excerpt: Cytosolic Peptide Expression. Peptides, FLAG-tagged or not, can be cloned into a mammalian expression vector consisting of a CMV promoter, then a monocistronic mCherry-T2a-peptide sequence. These can be transfected, along with (where indicated) pFLAG-YAP1 and 8×GTIIC-luciferase (Addgene plasmid #34615) into 293T cells. 24 hrs post-transfection, cells can be either harvested for luminescence (ONE-Glo, Promega) or Western blot (anti-FLAG M2, Sigma). Protein Transfection with dfTAT Reagent. Solution was diluted to 50 μM in PBS for a 10× working stock, for a final concentration of 5 μM in culture wells. […] For confirmation of peptide cell penetration, 293T and HeLa cells can be plated in a 96-well plate in DMEM with 10% FBS, 1× penicillin/streptomycin (Pen/Strep) and grown overnight to ˜50% confluence. Cells can be gently washed 3 times with PBS containing 1 mM CaCl2) and 0.5 mM MgCl2, then 2 times in serum-free DMEM. Wells (50 μL total) received either 5 μM (final) peptide in PBS, or PBS alone, and can also receive either 5 μM (final) dfTAT reagent in PBS, or PBS alone, before a 60 minute incubation at 37° C. and 5% CO2 in a humidified tissue culture incubator. After incubation, cells can be gently washed 3 times in PBS, which can be followed by fixation at 4° C. for 10 minutes with 4% formaldehyde in PBS. […]

[3] = target: T3, TEAD binding to surface-displayed YAP (Homo sapiens, UniProt P28347); assay: Competitive binding of peptides to TEAD versus cell surface-displayed YAP (flow cytometry)
T3 construct: made in house; host or cells: TEAD: Hi5 insect cells
Method: FIG. 11D illustrates a flow cytometry plot of cells expressing SDGF-YAP that were incubated with 5 nM TEAD and then washed. Cells were immediately stained with AF647-streptavidin and analyzed for YAP-expressing cells that have bound TEAD. FIG. 11E illustrates a flow cytometry plot of cells expressing SDGF-YAP that were incubated with 5 nM TEAD and then washed. Cells were incubated on ice for 1 hour, stained with AF647-streptavidin and analyzed for YAP-expressing cells that have bound TEAD. FIG. 11F illustrates a flow cytometry plot of cells expressing SDGF-YAP that were incubated with 5 nM TEAD and then washed. […] FIG. 11G illustrates a flow cytometry plot of cells expressing SDGF-YAP that were incubated with 5 nM TEAD and then washed.

TEAD [4] = target: T1, TEAD; assay: TEAD binding of SDGF-displayed peptides after exposure to reducing agent; settings: 5 minutes, 20 nM TEAD
Method: Peptides of this disclosure were also tested to evaluate if binding to TEAD was affected by exposure of peptide to reducing conditions. […] Cultures were grown for two days followed by incubation in 10 mM GSH or 10 mM DTT. Finally, cells were stained with TEAD. FIG. 13 illustrates binding to TEAD after cells expressing SDGF-SEQ ID NO: 9 are exposed to a reducing agent. FIG. 13A illustrates a flow cytometry plot showing binding of HEK-293 suspension cells transfected with SDGF-SEQ ID NO: 1 (GFP) incubated for 5 minutes in PBS, 10 mM DTT, or 10 mM glutathione (GSH) before staining with 20 nM biotinylated TEAD and 20 nM AF647-streptavidin. FIG. 13B illustrates a flow cytometry plot showing binding of HEK-293 suspension cells transfected with SDGF-SEQ ID NO: 9 (GFP) incubated for 5 minutes in PBS, 10 mM DTT, or 10 mM glutathione (GSH) before staining with 20 nM biotinylated TEAD and 20 nM AF647-streptavidin.

YAP:TEAD dimers = target: T4, YAP:TEAD dimers (Homo sapiens, UniProt P28347); assay: YAP:TEAD proximity ligation assay (PLA) in HeLa cells; type: cell-based; settings: 5 μM peptide with 5 μM dfTAT
T4 construct: endogenous in cells; host or cells: HeLa cells
Method: Proximity Ligation Assay. […] HeLa cells can be seeded in an 8-well chamber slide (Nunc Lab-Tek II) in DMEM+10% FBS and 1× Pen/Strep, and can be grown overnight, reaching ˜50% confluence. Cells can be gently washed 3 times with PBS containing 1 mM CaCl2 and 0.5 mM MgCl2, then 2 times in serum-free DMEM. Wells (120 μL total) can receive either 5 μM (final) peptide in PBS, or PBS alone, and can also receive either 5 μM (final) dfTAT reagent in PBS, or PBS alone, before a 90 minute incubation at 37° C. and 5% CO2 in a humidified tissue culture incubator. After incubation, cells can be gently washed 3 times in PBS, followed by fixation at 4° C. for 10 minutes with 4% formaldehyde in PBS. […]
PLA can be performed using the Duolink In Situ Fluorescence (Far Red) kit according to manufacturer's instructions, using supplied buffers without substitution and at recommended volumes for 1 cm^2 samples. […] For quantitation of nuclear speckles in ImageJ, UV and Cy5.5 filtered images can be Z-projected (maximum intensity), and can be processed using a custom macro to identify nuclear boundaries (UV channel) and speckles (Cy5.5 channel). […]
Proximity ligation assay (PLA) in HeLa cells was performed using primary antibodies against YAP and TEAD, in which speckles (APC channel) overlapping DAPI-stained nuclei (UV channel) were produced. […] All P-values were determined by two-tailed T-test.

YAP-TEAD interaction = target: T5, YAP-TEAD interaction (Homo sapiens, UniProt P28347); assay: YAP-TEAD disruption co-immunoprecipitation (Myc-TEAD resin, FLAG-YAP lysate); type: biochemical; settings: for FLAG-YAP pull-down with Myc-TEAD resin in the presence of peptide: Silver stain and Western blot
T5 construct: expressed in transfected cells; host or cells: 293T cells (lysates)
T5 sequence (P28347 whole entry): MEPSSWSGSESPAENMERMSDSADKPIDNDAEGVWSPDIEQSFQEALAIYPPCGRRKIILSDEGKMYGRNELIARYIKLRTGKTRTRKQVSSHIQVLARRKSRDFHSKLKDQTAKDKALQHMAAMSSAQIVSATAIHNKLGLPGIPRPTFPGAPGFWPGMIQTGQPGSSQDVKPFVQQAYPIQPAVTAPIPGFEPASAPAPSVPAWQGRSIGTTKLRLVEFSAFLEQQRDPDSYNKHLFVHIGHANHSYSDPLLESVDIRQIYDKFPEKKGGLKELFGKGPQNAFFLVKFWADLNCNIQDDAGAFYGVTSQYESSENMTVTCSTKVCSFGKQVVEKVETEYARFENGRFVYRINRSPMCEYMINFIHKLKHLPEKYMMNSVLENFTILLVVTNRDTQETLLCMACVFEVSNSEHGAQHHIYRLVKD

T1 sequence (P28347 209-426): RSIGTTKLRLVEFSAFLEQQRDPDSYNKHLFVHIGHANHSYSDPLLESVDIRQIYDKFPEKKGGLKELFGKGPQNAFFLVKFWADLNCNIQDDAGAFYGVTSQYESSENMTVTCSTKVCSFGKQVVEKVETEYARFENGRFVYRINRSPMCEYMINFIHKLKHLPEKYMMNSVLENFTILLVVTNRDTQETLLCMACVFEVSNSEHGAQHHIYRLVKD
T2 sequence (P28347 209-426): as above
T3 sequence (P28347 209-426): as above
T4 sequence (P28347 whole entry): as the sequence (P28347 whole entry) above

For “GSLERLKKCCNQGLDCEEARWKCELEAAFQGKNRETCLEEC [SEQ ID NO: 41]”, the “TEAD binding of cells displaying variant versus parent peptide” value (TEAD [1]) was “loss of binding to TEAD”.
In the case of `CC[C@H](C)[C@@H]1NC(=O)[C@H](C)NC(=O)[C@H](CO)NC(=O)[C@@H]2CSSC[C@@H]3NC(=O)[C@H](CCC(N)=O)NC(=O)[C@H](CC(N)=O)NC(=O)[C@H](CC(N)=O)NC(=O)[C@H](CCC(N)=O)NC(=O)[C@H](CSSC[C@H](NC(=O)[C@H](CCC(N)=O)NC(=O)[C@H](CC(N)=O)NC(=O)[C@H](CC(=O)O)NC(=O)[C@H](Cc4ccc(O)cc4)NC(=O)[C@H](CC(C)C)NC(=O)CNC(=O)[C@H](Cc4ccccc4)NC(=O)[C@H](CO)NC(=O)CN)C(=O)N[C@@H](C)C(=O)N[C@@H]([C@@H](C)O)C(=O)N[C@@H](CO)C(=O)N[C@@H](CC(=O)O)C(=O)N[C@@H](C)C(=O)N2)NC(=O)[C@H](CCCCN)NC(=O)CNC(=O)[C@H](CCC(N)=O)NC(=O)CNC(=O)[C@H](CO)NC(=O)CNC(=O)[C@H]([C@@H](C)O)NC(=O)[C@H](Cc2c[nH]c4ccccc24)NC(=O)[C@H](Cc2ccc(O)cc2)NC(=O)[C@H](CCCCN)NC(=O)[C@H](CSSC[C@@H](C(=O)N[C@@H](Cc2ccc(O)cc2)C(=O)O)NC(=O)[C@H](CCCNC(=N)N)NC3=O)NC1=O` [SEQ ID NO: 3] (H-GSFGLYDNQCATSDACSAICKYWTGSGQGKCQNNQCRCY-OH; disulfide 10-31, 16-36, 20-38), the “affinity/binding to TEAD as compared to a peptide of SEQ ID NO: 1” value (biotinylated TEAD) is reported as “lower binding affinity for TEAD” and the “TEAD binding of HEK-293 cells expressing SDGF-peptide” value (TEAD [1]) is reported as “displayed binding to TEAD”.
In the case of “GSLERLKKCCNQGLDCEEARWKCELEALFQGKNRETCLEEC [SEQ ID NO: 2]”, the “TEAD binding of HEK-293 cells expressing SDGF-peptide” value (TEAD [1]) is reported as “displayed binding to TEAD”.
In the case of “GSLERLKKSSNQGLDSEEARWKSELEALFQGKNRETSLEES [SEQ ID NO: 185]”, the “TEAD binding of cells displaying variant versus parent peptide” value (TEAD [1]) is reported as “loss of binding to TEAD”.
With “GSPDEYIERAKECCKKGDIQCCLRYFEESGDPNVMLICAFCP [SEQ ID NO: 5]” the “affinity/binding to TEAD as compared to a peptide of SEQ ID NO: 1” value (biotinylated TEAD) was “reduced affinity for TEAD” and the “TEAD binding of cells displaying variant versus parent peptide” value (TEAD [1]) was “marginal loss of binding to TEAD”.
With “GSLERLKKCCNQGLDCEEARWKCEAEALFQGKNRETCLEEC [SEQ ID NO: 40]” the “TEAD binding of cells displaying variant versus parent peptide” value (TEAD [1]) was “loss of binding to TEAD”.
With “GSPDEYIERAKECCKKGDIQCCLRYFEESGDPNVALICLFCP [SEQ ID NO: 6]” the “TEAD binding of cells displaying variant versus parent peptide” value (TEAD [1]) was “loss of binding to TEAD”.
“GSPDEYIERAKECCKKQDIQCCLRIFDESKDPNVMLICLFCP [SEQ ID NO: 11]” was tested, and the “TEAD binding with the extra wash step” value (TEAD [1]; 20 nM TEAD, Extra Wash protocol) was “diminished binding”.
With “GSPDEYIERAKECCKKGDIQCCLRYFAESGDPNVMLICLFCP [SEQ ID NO: 4]” the “TEAD binding of cells displaying variant versus parent peptide” value (TEAD [1]) was “loss of binding to TEAD”.
For “GSPDEYIERAKECCKKGDIQCCLRIFDESKDPNVMLICLFCW [SEQ ID NO: 12]”, the “TEAD luciferase reporter activity (relative luminescence units)” value [2] was “reduced”.
With “GSPDEYIERAKECCKKQDIQCCLRIFDESKDPNVMLICLFCW [SEQ ID NO: 9]” the “mean fluorescence intensity (MFI) of TEAD staining normalized to SEQ ID NO: 1” value (TEAD [1]; 20 nM TEAD, Normal and Extra Wash protocols) was “performed the best”, the “TEAD binding to YAP-displaying cells” value ([3]; YAP-displaying cells first incubated with TEAD prior to addition of peptide) was “near complete elimination of TEAD binding to YAP” and the “TEAD binding to YAP-displaying cells” value ([3]; cells incubated with peptide, then 5 nM TEAD) was “near complete elimination of TEAD binding to YAP”. The “binding to TEAD after reducing agent treatment” value (TEAD [4]; 10 mM DTT) was “no loss in binding to TEAD”, the “binding to TEAD after reducing agent treatment” value (TEAD [4]; 10 mM GSH) was “no loss in binding to TEAD” and the “YAP:TEAD PLA speckles per nucleus” value (YAP:TEAD dimers) was “significantly reduces YAP:TEAD dimers in the nucleus; also recorded: significantly reduced”.
“GSPDEYIERAKECCKKGDIQCCLRYFEESGDPNVMLICLFCP [SEQ ID NO: 1]” was tested, and the “TEAD binding profile of displayed peptide” value (TEAD [1]; 20 nM TEAD concentration and 2-step staining) was “apparent but weak”, the “TEAD binding of HEK-293 cells expressing SDGF-peptide” value (TEAD [1]) was “displayed binding to TEAD” and the “FLAG-YAP pull-down with Myc-TEAD resin in the presence of peptide” value (YAP-TEAD interaction) was “not pulled down”. For the same compound, the “inhibition of FLAG-YAP binding to Myc-TEAD resins” value (YAP-TEAD interaction; dilution series of peptide, Western blot) was “dose-dependent inhibition”, the “binding to TEAD after reducing agent treatment” value (TEAD [4]; 10 mM DTT) was “partial loss in binding to TEAD” and the “binding to TEAD after reducing agent treatment” value (TEAD [4]; 10 mM GSH) was “no loss in binding to TEAD”.
For “GSPDEYIERAKESSKKGDIQSSLRYFEESGDPNVMLISLFSP [SEQ ID NO: 184]”, the “TEAD binding of cells displaying variant versus parent peptide” value (TEAD [1]) was “loss of binding to TEAD”.
For “GSLERLKKCCNQGLDCEEARWKCELEALAQGKNRETCLEEC [SEQ ID NO: 42]”, the “TEAD binding of cells displaying variant versus parent peptide” value (TEAD [1]) was “loss of binding to TEAD”.
With “GSPDEYIERAKECCKKGDIQCCLRYFEESGDPNVMLICLACP [SEQ ID NO: 7]” the “affinity/binding to TEAD as compared to a peptide of SEQ ID NO: 1” value (biotinylated TEAD) was “reduced affinity for TEAD”, the “TEAD binding of cells displaying variant versus parent peptide” value (TEAD [1]) was “loss of binding to TEAD” and the “FLAG-YAP pull-down with Myc-TEAD resin in the presence of peptide” value (YAP-TEAD interaction) was “not pulled down”.
